Values of other authors, collected in patent US9326524B1, “Insect repellent compositions” (Nantucket Spider, LLC, priority 2014, dated 2016).

Test system: mosquitoes
Conditions: compared with naturally derived PMD in the form of OLE

CC1CCC(C(C)(C)O)C(O)C1 (stereo not shown) [Pure PMD, p-Menthane-3,8-diol]
efficacy in repelling mosquitoes: significantly less efficacious
